Consider one compound from patent US10913773B2, “Bicyclic peptidyl inhibitor of tumor necrosis factor-alpha” (Ohio State Innovation Foundation, priority 2016, dated 2021).

The term EC50 denotes the concentration at which the effect is half-maximal.

The structures appear in SMILES notation.

Data set [1] relates to TNFα-induced cell death in WEHI-13VAR fibroblasts (recombinant human TNFα). The class given is cell-based. Here is the method: WEHI-13VAR fibroblasts were purchased from American Type Culture Collection (ATCC). For maintenance, cells were grown in full medium as RPMI-1640 supplemented with 10% FBS and 1% Abs. For toxicity assay, cells were seeded in a 96-well plate at a density of 5×10^3 cells/well in 100 μL of RPMI-1640/1% Abs supplemented with 10% or 5% FBS and allowed to grow overnight. Varying concentrations of recombinant human TNFα (0-250 ng/mL) or commercial mouse TNFα were (0-100 pg/mL) were incubated with 10 μM peptide and actinomycin D (1 μg/mL) in 100 μL of corresponding growth medium for 1 h at 37° C. Next, the medium in the 96-well plate was removed and replaced with the above fresh mixture and the cells were incubated overnight. Next day, 10 μL of the 3-(4, 5-dimethylthiazolyl-2)-2, 5-diphenyltetrazolium bromide (MTT, final concentration 0.5 mg/ml) was added to each well and incubated at 37° C. for 3 h, following by the addition of 100 μL of the MTT solubilization solution. The plate was kept in the incubator overnight to let the formazan crystals to completely dissolve, and the absorbance at 570 nm was measured on a TECAN plate reader. The LD50 was obtained as plotting the viability as a function of the TNFα concentration.
One of the biological functions of TNFα is to induce death signaling. Inhibitors against the TNFα-TNFR interaction are expected to protect cells against TNFα induced cell death. Therefore, anticachexin C1, C1-74, and C1-74-2 through C1-74-5 were compared for their ability to protect cultured WEHI-13 VAR fibroblasts, which are highly sensitive to TNFα in the presence of actinomycin-D, against TNFα-induced cell death (Khabar, K. S. A.; et al., “WEHI-13VAR: A Stable and Sensitive Variant of WEHI 164 Clone 13 Fibrosarcoma for Tumor Necrosis Factor Bioassay.” Immunol. Lett. 1995, 46:107-110). The cells were treated with a fixed concentration of peptides (10 μM) and varying concentrations of TNFα (0-1 μM), and the fraction of live cells was quantitated by the 3-(4,5-dimethylthiazol-2-yl)-2,5-diphenyltetrazolium bromide (MTT) assay. […] The MTT assay was also conducted at a fixed concentration of TNFα (0.4 ng/mL) but varying concentrations of peptides (0-10 μM).

Data set [2] can be described thus: Serum stability test. The class given is in vitro ADME, human. As to conditions: human, diluted human serum (25%), supernatant after centrifugation; 8 h at 37° C.; read-out: Degradation in human serum. As for the experimental part: Diluted human serum (25%) was centrifuged at 15,000 rpm for 10 min, and the supernatant was collected. A peptide stock solution was diluted into the supernatant to a final concentration of 5 μM and incubated at 37° C. At various time points (0-8 h), 200-μL aliquots were withdrawn and mixed with 50 μL of 15% trichloroacetic acid and 200 μL of acetonitrile. After incubation at 4° C. overnight, the mixture was centrifuged at 15,000 rpm for 10 min in a microcentrifuge, and the supernatant was analyzed by reversed-phase HPLC equipped with an analytical C18 column (Waters). The amount of remaining intact peptide (%, relative that of time zero control) was determined by integrating the area underneath the peptide peak (monitored at 214 nm).

For `CC(=O)[C@@H]1CCCN(C(=O)[C@@H](Cc2c[nH]cn2)NC(=O)C(N)C(C)C)C1` (stereo partly drawn) [Compound C1-74-2], in data set [1], the EC50 is around 50 nM. Besides, the “Concentration giving almost complete protection” value in data set [1] (0.4 ng/mL TNFα) was at least 100 nM. Further, the metabolised at 8 h, 5 μM in data set [2] is around 15%.
